Data reported in ChEMBL document CHEMBL4311992, “Discovery of 3-(((9H-purin-6-yl)amino)methyl)-4,6-dimethylpyridin-2(1H)-one derivatives as novel tubulin polymerization inhibitors for treatment of cancer” (Eur J Med Chem, 2019).
Calls of active or inactive are those of the source. No cut-off for these calls is given here.

How the values were obtained:
[1] = biological target: Ephrin type-A receptor 1 (Homo sapiens) (UniProt P21709); test: Inhibition of recombinant human EphA1 (568 to end residues) assessed as residual activity at 10 uM using KKKSPGEYVNIEF as substrate measured after 40 mins in presence of [gamma33P]ATP by scintillation counting method
[2] = biological target: Inhibitor of nuclear factor kappa-B kinase subunit alpha (Homo sapiens) (UniProt O15111); test: Inhibition of recombinant full-length human IKKalpha ([…]) assessed as residual activity at 10 uM using peptide substrate measured after 40 mins in presence of [gamma33P]ATP by scintillation counting method
Inhibitor of nuclear factor kappa-B kinase subunit alpha (Homo sapiens), sequence (O15111 whole entry): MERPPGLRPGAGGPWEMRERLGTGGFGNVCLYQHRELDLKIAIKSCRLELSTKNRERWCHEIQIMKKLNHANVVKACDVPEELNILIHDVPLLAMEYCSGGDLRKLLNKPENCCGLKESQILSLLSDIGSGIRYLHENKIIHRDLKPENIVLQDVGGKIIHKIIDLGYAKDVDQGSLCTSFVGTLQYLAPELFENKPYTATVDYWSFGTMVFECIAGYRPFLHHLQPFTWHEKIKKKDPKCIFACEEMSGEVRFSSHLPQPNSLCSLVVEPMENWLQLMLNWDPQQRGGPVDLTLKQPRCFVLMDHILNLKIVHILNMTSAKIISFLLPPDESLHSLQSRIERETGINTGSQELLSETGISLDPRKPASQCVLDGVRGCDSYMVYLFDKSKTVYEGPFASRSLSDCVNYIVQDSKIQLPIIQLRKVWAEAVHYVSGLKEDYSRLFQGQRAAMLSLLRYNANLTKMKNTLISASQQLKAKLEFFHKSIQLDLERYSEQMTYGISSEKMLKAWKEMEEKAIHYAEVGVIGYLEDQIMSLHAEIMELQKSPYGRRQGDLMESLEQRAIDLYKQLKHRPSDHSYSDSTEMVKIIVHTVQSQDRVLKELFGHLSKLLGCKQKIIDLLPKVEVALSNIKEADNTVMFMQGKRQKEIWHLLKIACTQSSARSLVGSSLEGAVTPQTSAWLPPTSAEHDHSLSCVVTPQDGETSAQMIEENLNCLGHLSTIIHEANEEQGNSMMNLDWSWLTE

[3] = Toxicity in Balb/c mouse spleen at 80 mg/kg after 4 weeks by hematoxylin and eosin staining-based assay; type: organism-based; settings: in vivo, 672 h
Homo sapiens = species on record: Homo sapiens; test: Inhibition of recombinant human ARAF Y301D/Y302D mutant (273 to end residues) assessed as residual activity at 10 uM using myelin basic protein as substrate measured after 40 mins in presence of [gamma33P]ATP by scintillation counting method
[4] = biological target: Tyrosine-protein kinase FRK (Homo sapiens) (UniProt P42685); test: Inhibition of human PTK5 (218 to end residues) using GGEEEEYFELVKKKK as substrate measured after 40 mins in presence of [gamma33P]ATP by scintillation counting method; set-up: scale not given: the % may be the effect or the level left
[5] = biological target: Glycogen synthase kinase-3 alpha (Homo sapiens) (UniProt P49840); test: Inhibition of recombinant human GSK3alpha (2 to end residues) assessed as residual activity at 10 uM using phospho GS2 peptide as substrate measured after 40 mins in presence of [gamma33P]ATP by scintillation counting method
Glycogen synthase kinase-3 alpha (Homo sapiens), sequence (P49840 2-483 limits assumed): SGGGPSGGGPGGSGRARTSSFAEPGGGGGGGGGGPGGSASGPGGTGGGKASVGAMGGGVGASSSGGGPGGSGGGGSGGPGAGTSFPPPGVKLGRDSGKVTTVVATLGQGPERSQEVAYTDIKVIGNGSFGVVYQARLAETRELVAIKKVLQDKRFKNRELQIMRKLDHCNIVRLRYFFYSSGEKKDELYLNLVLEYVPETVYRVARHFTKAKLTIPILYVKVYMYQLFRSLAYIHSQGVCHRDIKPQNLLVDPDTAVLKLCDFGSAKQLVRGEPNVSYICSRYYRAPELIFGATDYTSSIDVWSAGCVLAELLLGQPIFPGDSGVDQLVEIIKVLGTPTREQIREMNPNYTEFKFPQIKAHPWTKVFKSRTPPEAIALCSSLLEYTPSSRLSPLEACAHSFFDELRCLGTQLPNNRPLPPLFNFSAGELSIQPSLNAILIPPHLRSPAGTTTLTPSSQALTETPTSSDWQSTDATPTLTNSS

[6] = biological target: Ephrin type-A receptor 8 (Homo sapiens) (UniProt P29322); test: Inhibition of recombinant human EphA8 (615 to 911 residues) assessed as residual activity at 10 uM using KTFCGTPEYLAPEVRREPRILSEEEQEMFRDFDYIADWC as substrate measured after 40 mins in presence of [gamma33P]ATP by scintillation counting method
[7] = Renal toxicity in nude BALB/c mouse at 80 mg/kg, po administered once daily for 4 weeks measured post-last dose by hematoxylin and eosin staining-based assay; type: organism-based; settings: in vivo, 672 h
[8] = biological target: PAS domain-containing serine/threonine-protein kinase (Homo sapiens) (UniProt Q96RG2); test: Inhibition of recombinant human PASK (995 to end residues) assessed as residual activity at 10 uM using KKLNRTLSFAEPG as substrate measured after 40 mins in presence of [gamma33P]ATP by scintillation counting method
[9] = tested on: RAC-beta serine/threonine-protein kinase (Homo sapiens), P31751 [S474D]; test: Inhibition of recombinant full-length human PKBbeta S474D mutant (120 to end residues) assessed as residual activity at 10 uM using GRPRTSSFAEGKK as substrate measured after 40 mins in presence of [gamma33P]ATP by scintillation counting method
[10] = biological target: Tyrosine-protein kinase BTK (Homo sapiens) (UniProt Q06187); test: Inhibition of full-length recombinant human BTK assessed as residual activity at 10 uM using KVEKIGEGTYGVVYK as substrate measured after 40 mins in presence of [gamma33P]ATP by scintillation counting method
Tyrosine-protein kinase BTK (Homo sapiens), sequence (Q06187 whole entry): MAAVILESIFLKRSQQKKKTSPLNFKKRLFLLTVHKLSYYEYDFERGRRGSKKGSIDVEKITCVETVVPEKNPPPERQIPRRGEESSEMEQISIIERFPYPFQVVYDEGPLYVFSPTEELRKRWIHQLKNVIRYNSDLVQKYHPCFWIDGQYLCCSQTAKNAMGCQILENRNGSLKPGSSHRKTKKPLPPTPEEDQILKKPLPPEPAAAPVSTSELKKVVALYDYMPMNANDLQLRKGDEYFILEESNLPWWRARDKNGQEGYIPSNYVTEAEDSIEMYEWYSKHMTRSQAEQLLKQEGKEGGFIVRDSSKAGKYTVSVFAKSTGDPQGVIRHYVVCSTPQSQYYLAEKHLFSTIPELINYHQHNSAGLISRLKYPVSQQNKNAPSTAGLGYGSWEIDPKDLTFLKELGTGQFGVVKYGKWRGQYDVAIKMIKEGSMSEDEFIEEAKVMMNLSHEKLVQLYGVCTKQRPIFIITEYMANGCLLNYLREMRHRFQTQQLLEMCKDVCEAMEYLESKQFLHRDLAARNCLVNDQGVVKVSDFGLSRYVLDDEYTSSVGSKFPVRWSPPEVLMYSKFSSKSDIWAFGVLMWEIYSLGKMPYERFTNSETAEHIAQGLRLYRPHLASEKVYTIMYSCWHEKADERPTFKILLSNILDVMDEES

[11] = biological target: MAP/microtubule affinity-regulating kinase 4 (Homo sapiens) (UniProt Q96L34); test: Inhibition of recombinant full-length human MARK4 assessed as residual activity at 10 uM using KKKVSRSGLYRSPSMPENLNRPR as substrate measured after 40 mins in presence of [gamma33P]ATP by scintillation counting method
[12] = Cardiotoxicity in nude BALB/c mouse at 80 mg/kg, po administered once daily for 4 weeks measured post-last dose by hematoxylin and eosin staining-based assay; type: toxicity, organism-based; settings: in vivo, 672 h
[13] = biological target: Testis-specific serine/threonine-protein kinase 1 (Homo sapiens) (UniProt Q9BXA7); test: Inhibition of recombinant full-length human TSSK1 assessed as residual activity at 10 uM using KKKVSRSGLYRSPSMPENLNRPR as substrate measured after 120 mins in presence of [gamma33P]ATP by scintillation counting method
HCT-116 [14] = test: Induction of cell cycle arrest in human HCT116 cells assessed as accumulation at G2/M phase after 24 hrs by propidium iodide-staining based flow cytometry; type: functional
HCT-15 = test: Antiproliferative activity against human HCT15 cells assessed as reduction in cell viability after 72 hrs by MTT assay; type: functional, cell-based; settings: HCT-15, 72 h
[15] = biological target: Rhodopsin kinase GRK1 (Homo sapiens) (UniProt Q15835); test: Inhibition of recombinant full-length human GRK1 assessed as residual activity at 10 uM using KKKKERLLDDRHDSGLDSMKDEE as substrate measured after 40 mins in presence of [gamma33P]ATP by scintillation counting method
Rhodopsin kinase GRK1 (Homo sapiens), sequence (Q15835 whole entry): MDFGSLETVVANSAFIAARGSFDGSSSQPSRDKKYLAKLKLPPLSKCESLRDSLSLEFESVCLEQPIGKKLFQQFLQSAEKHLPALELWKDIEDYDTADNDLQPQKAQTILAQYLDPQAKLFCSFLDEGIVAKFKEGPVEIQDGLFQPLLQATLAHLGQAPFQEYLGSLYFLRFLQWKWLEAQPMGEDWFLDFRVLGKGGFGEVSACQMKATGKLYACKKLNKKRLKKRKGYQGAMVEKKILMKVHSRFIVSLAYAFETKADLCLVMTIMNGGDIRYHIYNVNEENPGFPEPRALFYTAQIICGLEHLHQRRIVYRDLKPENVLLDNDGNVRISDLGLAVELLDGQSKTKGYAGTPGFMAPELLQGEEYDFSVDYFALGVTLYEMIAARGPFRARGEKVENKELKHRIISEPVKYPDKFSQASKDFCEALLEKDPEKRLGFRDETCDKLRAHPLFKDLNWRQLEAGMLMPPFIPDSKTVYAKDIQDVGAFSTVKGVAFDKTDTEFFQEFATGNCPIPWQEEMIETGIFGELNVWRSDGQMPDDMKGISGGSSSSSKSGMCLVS

[16] = biological target: Tyrosine-protein kinase JAK3 (Homo sapiens) (UniProt P52333); test: Inhibition of recombinant human JAK3 (781 to end residues) assessed as residual activity at 10 uM using GGEEEEYFELVKKKK as substrate measured after 40 mins in presence of [gamma33P]ATP by scintillation counting method
[17] = biological target: Serine/threonine-protein kinase SIK3 (Homo sapiens) (UniProt Q9Y2K2); test: Inhibition of human SIK3 (1 to 307 residues) using KKKVSRSGLYRSPSMPENLNRPR as substrate measured after 40 mins in presence of [gamma33P]ATP by scintillation counting method; set-up: scale not given: the % may be the effect or the level left
[18] = biological target: Macrophage-stimulating protein receptor (Homo sapiens) (UniProt Q04912); test: Inhibition of human Ron (983 to end residues) using GGMEDIYFEFMGGKKK as substrate measured after 40 mins in presence of [gamma33P]ATP by scintillation counting method; set-up: scale not given: the % may be the effect or the level left
Macrophage-stimulating protein receptor (Homo sapiens), sequence (Q04912 25-304 limits assumed): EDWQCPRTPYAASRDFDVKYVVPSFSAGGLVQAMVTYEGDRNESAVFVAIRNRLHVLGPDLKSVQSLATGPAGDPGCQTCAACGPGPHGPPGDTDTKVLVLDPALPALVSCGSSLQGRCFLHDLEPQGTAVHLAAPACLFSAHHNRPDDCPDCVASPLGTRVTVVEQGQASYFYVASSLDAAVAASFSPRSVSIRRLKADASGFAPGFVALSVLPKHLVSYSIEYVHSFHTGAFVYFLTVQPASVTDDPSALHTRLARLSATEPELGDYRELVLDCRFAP
Macrophage-stimulating protein receptor (Homo sapiens), sequence (Q04912 310-1400 limits assumed): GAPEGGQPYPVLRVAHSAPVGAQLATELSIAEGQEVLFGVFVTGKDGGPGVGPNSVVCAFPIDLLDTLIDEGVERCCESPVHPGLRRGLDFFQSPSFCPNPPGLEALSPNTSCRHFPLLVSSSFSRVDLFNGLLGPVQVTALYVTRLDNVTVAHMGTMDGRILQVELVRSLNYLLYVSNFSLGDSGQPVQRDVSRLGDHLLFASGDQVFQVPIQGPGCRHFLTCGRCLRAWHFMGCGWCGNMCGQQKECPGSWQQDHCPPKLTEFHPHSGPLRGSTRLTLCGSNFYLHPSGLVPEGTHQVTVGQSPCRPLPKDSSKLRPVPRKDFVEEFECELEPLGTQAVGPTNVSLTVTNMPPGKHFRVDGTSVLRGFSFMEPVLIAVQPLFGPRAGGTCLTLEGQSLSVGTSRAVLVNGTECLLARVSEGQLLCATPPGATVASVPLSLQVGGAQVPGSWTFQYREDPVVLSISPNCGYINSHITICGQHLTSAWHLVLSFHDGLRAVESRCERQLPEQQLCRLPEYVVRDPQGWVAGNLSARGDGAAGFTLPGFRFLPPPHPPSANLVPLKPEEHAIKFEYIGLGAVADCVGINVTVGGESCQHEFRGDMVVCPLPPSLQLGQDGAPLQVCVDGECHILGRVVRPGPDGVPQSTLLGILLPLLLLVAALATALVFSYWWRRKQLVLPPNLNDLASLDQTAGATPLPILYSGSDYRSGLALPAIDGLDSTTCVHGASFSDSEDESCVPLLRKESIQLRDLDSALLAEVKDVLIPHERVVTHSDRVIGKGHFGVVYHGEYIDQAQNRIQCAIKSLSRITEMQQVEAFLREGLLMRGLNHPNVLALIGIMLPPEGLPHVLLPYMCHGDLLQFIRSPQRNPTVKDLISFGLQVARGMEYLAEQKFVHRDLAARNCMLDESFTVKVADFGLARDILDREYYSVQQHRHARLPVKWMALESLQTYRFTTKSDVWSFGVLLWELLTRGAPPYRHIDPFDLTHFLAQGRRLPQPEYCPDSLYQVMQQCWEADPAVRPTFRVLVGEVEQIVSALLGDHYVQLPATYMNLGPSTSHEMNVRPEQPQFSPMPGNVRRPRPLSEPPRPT

[19] = biological target: Macrophage colony-stimulating factor 1 receptor (Homo sapiens) (UniProt P07333); test: Inhibition of recombinant human FMS (538 to end residues) assessed as residual activity at 10 uM using KKKSPGEYVNIEFG as substrate measured after 40 mins in presence of [gamma33P]ATP by scintillation counting method
Macrophage colony-stimulating factor 1 receptor (Homo sapiens), sequence (P07333 whole entry): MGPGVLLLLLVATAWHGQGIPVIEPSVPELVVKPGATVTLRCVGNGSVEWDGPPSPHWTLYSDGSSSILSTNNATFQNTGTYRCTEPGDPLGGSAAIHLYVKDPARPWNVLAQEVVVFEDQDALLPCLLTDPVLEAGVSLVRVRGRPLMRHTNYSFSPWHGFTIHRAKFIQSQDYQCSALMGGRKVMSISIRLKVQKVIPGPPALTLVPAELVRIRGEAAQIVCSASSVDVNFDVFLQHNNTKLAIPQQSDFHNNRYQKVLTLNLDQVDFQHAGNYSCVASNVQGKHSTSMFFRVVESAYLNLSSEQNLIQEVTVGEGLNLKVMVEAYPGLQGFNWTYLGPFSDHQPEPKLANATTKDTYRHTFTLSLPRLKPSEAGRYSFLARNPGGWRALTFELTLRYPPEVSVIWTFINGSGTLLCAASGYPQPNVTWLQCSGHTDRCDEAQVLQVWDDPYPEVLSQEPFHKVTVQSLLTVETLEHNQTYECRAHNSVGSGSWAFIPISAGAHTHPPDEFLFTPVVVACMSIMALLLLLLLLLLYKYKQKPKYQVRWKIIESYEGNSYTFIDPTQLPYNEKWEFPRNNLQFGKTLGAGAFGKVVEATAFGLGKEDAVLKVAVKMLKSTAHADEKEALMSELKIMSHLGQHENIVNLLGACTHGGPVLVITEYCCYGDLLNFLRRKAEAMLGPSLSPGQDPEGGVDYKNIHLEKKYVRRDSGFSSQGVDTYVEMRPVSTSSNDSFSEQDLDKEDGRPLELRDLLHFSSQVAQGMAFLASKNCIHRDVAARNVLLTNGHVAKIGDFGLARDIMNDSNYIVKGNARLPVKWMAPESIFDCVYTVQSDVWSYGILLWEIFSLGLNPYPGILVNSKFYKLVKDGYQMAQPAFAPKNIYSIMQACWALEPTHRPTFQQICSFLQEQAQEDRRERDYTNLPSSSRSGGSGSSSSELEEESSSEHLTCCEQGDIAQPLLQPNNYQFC

HCT-116 [20] = test: Induction of apoptosis in human HCT116 cells assessed as increase in cleaved caspase3 expression up to 200 nM measured after 48 hrs by Western blot analysis; type: functional, cell-based
[21] = biological target: Mitogen-activated protein kinase kinase kinase 5 (Homo sapiens) (UniProt Q99683); test: Inhibition of recombinant human ASK1 (649 to 946 residues) assessed as residual activity at 10 uM using myelin basic protein as substrate measured after 40 mins in presence of [gamma33P]ATP by scintillation counting method
[22] = biological target: Activin receptor type-1 (Homo sapiens) (UniProt Q04771); test: Inhibition of recombinant human ALK2 (142 to end residues) assessed as residual activity at 10 uM using casein as substrate measured after 40 mins in presence of [gamma33P]ATP by scintillation counting method
[23] = biological target: Mitogen-activated protein kinase kinase kinase kinase 5 (Homo sapiens) (UniProt Q9Y4K4); test: Inhibition of recombinant full-length human MAP4K5 assessed as residual activity at 10 uM using myelin basic protein as substrate measured after 40 mins in presence of [gamma33P]ATP by scintillation counting method

Cc1cc(C)c(CNc2nc(Cl)nc3c2ncn3C2CCCC2)c(=O)[nH]1
Activity [1]: 102% | Activity [2]: 88.5% | Activity [3]: Non-Toxic | Activity (Homo sapiens): 122% | Activity [4]: 102% | Activity [5]: 102% | Activity [6]: 97% | Activity [7]: Non-Toxic | Activity [8]: 100% | Activity [9]: 114% | Activity [10]: 85% | Activity [11]: 123% | Activity [12]: Non-Toxic | Activity [13]: 110% | Activity (HCT-116 [14]): Dose-dependent effect | IC50 (HCT-15): 61 nM | Activity [15]: 90.5% | Activity [16]: 90% | Activity [17]: 119% | Activity [18]: 110% | Activity [19]: 102% | Activity (HCT-116 [20]): Active | Activity [21]: 102% | Activity [22]: 106% | Activity [23]: 130%
